Data as given in PMC6112376, “Comprehensive Analyses and Prioritization of Tox21 10K Chemicals Affecting Mitochondrial Function by in-Depth Mechanistic Studies” (Environmental Health Perspectives, 2018).
Read-outs that look alike come from different tables or passages of the source.

What was measured:
[1] = system: rat primary hepatocytes; assay: MMP assay in rat primary hepatocytes; conditions: for IC50: read-out: MMP assays IC50 (µM) Rat Hepatocytes
[2] = system: HepG2 cells; conditions: for IC50: read-out: MMP assays IC50 (µM) HepG2
[3] = system: HepG2 cells; conditions: cited from earlier work
[4] = rat hepatocytes, mean ± SD of three experiments
[5] = HepG2 cells, single number from one experiment
[6] = read-out: MMP assays IC50 (µM) qHTS-HepG2
[7] = read-out: MMP assays IC50 (µM), qHTS-HepG2

Compound: C(=Cc1ccncc1)c1ccccc1 [Compound 4-Styrylpyridine]
- MMP assays IC50 (µM) Rat Hepatocytes [1, 4]: inactive
- MMP assays efficacy (%) Rat Hepatocytes [1, 4]: inactive
- MMP assays IC50 (µM) HepG2 [2, 5]: inactive
- MMP assays efficacy (%) HepG2 [2, 5]: inactive
- MMP assays efficacy (%) qHTS-HepG2 [3]: -65±10%
- IC50 [3, 6]: 11.2 ± 5.54 µM

Compound: Nc1cc(Cl)c([N+](=O)[O-])cc1O [Compound 2-Amino-4-chloro-5-nitrophenol]
- MMP assays efficacy (%) Rat Hepatocytes [1, 4]: -47±13%
- IC50 [1, 4]: 31.3 ± 8.72 µM
- MMP assays efficacy (%) HepG2 [2, 5]: -107%
- IC50 [2, 5]: 25.1 µM
- MMP assays efficacy (%) qHTS-HepG2 [3]: -104±19%
- IC50 [3, 6]: 21.5 ± 2.48 µM

Compound: O=C1c2c(O)ccc(Nc3ccc(CCO)cc3)c2C(=O)c2c([N+](=O)[O-])ccc(O)c21 [C.I. Disperse blue 27]
- MMP assays efficacy (%) Rat Hepatocytes [1, 4]: -72±24%
- IC50 [1, 4]: 32.5 ± 10.4 µM
- MMP assays efficacy (%) HepG2 [2, 5]: -119%
- IC50 [2, 5]: 25.1 µM
- MMP assays efficacy (%) qHTS-HepG2 [3]: -86±8%
- IC50 [3, 6]: 2.34 ± 0.87 µM

Compound: CCOC(=O)c1ccccc1C(=C1C=C(Br)C(=O)C(Br)=C1)c1cc(Br)c(O)c(Br)c1 [Tetrabromophenolphthalein ethyl ester]
- MMP assays efficacy (%) Rat Hepatocytes [1, 4]: -101±25%
- IC50 [1, 4]: 13.8 ± 0.94 µM
- MMP assays efficacy (%) HepG2 [2, 5]: -129%
- IC50 [2, 5]: 26.6 µM
- MMP assays efficacy (%) qHTS-HepG2 [3]: -105±26%
- IC50 [3, 7]: 23.8 ± 6.89 µM

Compound: O=C(c1ccccc1)c1cc(Cl)ccc1O
- MMP assays efficacy (%) Rat Hepatocytes [1, 4]: -59±21%
- IC50 [1, 4]: 25.4 ± 21.3 µM
- MMP assays efficacy (%) HepG2 [2, 5]: -98%
- IC50 [2, 5]: 39.8 µM
- MMP assays efficacy (%) qHTS-HepG2 [3]: -85±12%
- IC50 [3, 6]: 29.1 ± 3.36 µM

Compound: O=C(O)C(=O)Cc1c[nH]c2ccccc12 [Indole-3-pyruvic acid]
- MMP assays efficacy (%) Rat Hepatocytes [1, 4]: -72±42%
- IC50 [1, 4]: 21.3 ± 17.9 µM
- MMP assays efficacy (%) HepG2 [2, 5]: -89%
- IC50 [2, 5]: 11.2 µM
- MMP assays efficacy (%) qHTS-HepG2 [3]: -85±21%
- IC50 [3, 7]: 28.9 ± 16.7 µM

Compound: Cl.Nc1ccc2cc3ccc(N)cc3nc2c1 [Proflavin hydrochloride]
- MMP assays efficacy (%) Rat Hepatocytes [1, 4]: -79±34%
- IC50 [1, 4]: 15.9 ± 5.23 µM
- MMP assays efficacy (%) HepG2 [2, 5]: -97%
- IC50 [2, 5]: 3.55 µM
- MMP assays efficacy (%) qHTS-HepG2 [3]: -115±14%
- IC50 [3, 7]: 1.66 ± 0.63 µM

Compound: c1ccc2c(c1)OCC(C1=NCCN1)O2 (stereo not shown) [Idazoxan]
- MMP assays IC50 (µM) Rat Hepatocytes [1, 4]: inactive
- MMP assays efficacy (%) Rat Hepatocytes [1, 4]: inactive
- MMP assays IC50 (µM) HepG2 [2, 5]: inactive
- MMP assays efficacy (%) HepG2 [2, 5]: inactive
- MMP assays efficacy (%) qHTS-HepG2 [3]: -60±9%
- IC50 [3, 7]: 20.6 ± 7.46 µM

Compound: Cl.Cl.Nc1ccc(O)c(N)c1 [2,4-Diaminophenol dihydrochloride]
- MMP assays IC50 (µM) Rat Hepatocytes [1, 4]: inactive
- MMP assays efficacy (%) Rat Hepatocytes [1, 4]: inactive
- MMP assays IC50 (µM) HepG2 [2, 5]: inactive
- MMP assays efficacy (%) HepG2 [2, 5]: inactive
- MMP assays efficacy (%) qHTS-HepG2 [3]: -58±5%
- IC50 [3, 6]: 3.77 ± 1.06 µM

Compound: Diniconazole
- IC50 [1]: 36 ± 28.6 µM
- IC50 [2]: 8.91 µM
- IC50 [3, 6]: 12.2 ± 3.53 µM

Compound: CC1C2CC(CC2C2CCCC(O)C2)C1(C)C (stereo not shown)
- MMP assays IC50 (µM) Rat Hepatocytes [1, 4]: inactive
- MMP assays efficacy (%) Rat Hepatocytes [1, 4]: inactive
- MMP assays efficacy (%) HepG2 [2, 5]: -108%
- IC50 [2, 5]: 39.8 µM
- MMP assays efficacy (%) qHTS-HepG2 [3]: -98±23%
- IC50 [3, 6]: 31.8 ± 17.5 µM

Compound: O=C(CC(=O)C(F)(F)F)c1ccccc1 [4,4,4-Trifluoro-1-phenyl-1,3-butanedione]
- MMP assays IC50 (µM) Rat Hepatocytes [1, 4]: inactive
- MMP assays efficacy (%) Rat Hepatocytes [1, 4]: inactive
- MMP assays efficacy (%) HepG2 [2, 5]: -85%
- IC50 [2, 5]: 31.6 µM
- MMP assays efficacy (%) qHTS-HepG2 [3]: -103±7%
- IC50 [3, 6]: 20.4 ± 6.17 µM

Compound: CC(C)(O)c1ccccc1CC[C@@H](SCC1(CC(=O)O)CC1)c1cccc(/C=C/c2ccc3ccc(Cl)cc3n2)c1 [Montelukast sodium]
- IC50 ([1]; Rattus norvegicus, Hepatocyte): 24.1 ± 9.54 µM
- MMP assays IC50 (µM) HepG2 [2]: inactive
- MMP assays efficacy (%) HepG2 [2]: inactive
- MMP assays efficacy (%) qHTS-HepG2 [3]: -72±20%

Compound: CC(C)(C)NCC(O)CSc1nc(-c2ccc(C(N)=O)s2)cs1.Cl (stereo not shown) [Arotinolol hydrochloride]
- MMP assays IC50 (µM) Rat Hepatocytes [1, 4]: inactive
- MMP assays efficacy (%) Rat Hepatocytes [1, 4]: inactive
- MMP assays efficacy (%) HepG2 [2, 5]: -88%
- IC50 [2, 5]: 27.5 µM
- MMP assays efficacy (%) qHTS-HepG2 [3]: -64±8%
- IC50 [3, 6]: 17 ± 3.45 µM

Compound: C#C[C@]1(OC(=O)CCCCCC)CC[C@H]2[C@@H]3CCC4=CC(=O)CC[C@@H]4[C@H]3CC[C@@]21C [Noristerat]
- MMP assays IC50 (µM) Rat Hepatocytes [1, 4]: inactive
- MMP assays efficacy (%) Rat Hepatocytes [1, 4]: inactive
- MMP assays efficacy (%) HepG2 [2, 5]: -117%
- IC50 [2, 5]: 21.8 µM
- MMP assays efficacy (%) qHTS-HepG2 [3]: -87±18%
- IC50 [3, 7]: 9.81 ± 1.78 µM

Compound: Cc1cc(C(=C2C=CC(=N)C=C2)c2ccc(N)cc2)ccc1N [C.I. Basic violet 14]
- MMP assays efficacy (%) Rat Hepatocytes [1, 4]: -71±37%
- IC50 [1, 4]: 6.84 ± 4.71 µM
- MMP assays efficacy (%) HepG2 [2, 5]: -96%
- IC50 [2, 5]: 0.87 µM
- MMP assays efficacy (%) qHTS-HepG2 [3]: -87±10%
- IC50 [3, 6]: 0.18 ± 0.16 µM

Compound: CCCOc1ccc2nc(NC(=O)OC)sc2c1 [Tioxidazole]
- MMP assays efficacy (%) Rat Hepatocytes [1, 4]: -65±43%
- IC50 [1, 4]: 13 ± 1.06 µM
- MMP assays efficacy (%) HepG2 [2, 5]: -62%
- IC50 [2, 5]: 15.5 µM
- MMP assays efficacy (%) qHTS-HepG2 [3]: -70±6%
- IC50 [3, 7]: 7.5 ± 1.75 µM

Compound: CN(C)C(=O)Nc1ccccc1 [Fenuron]
- MMP assays IC50 (µM) Rat Hepatocytes [1, 4]: inactive
- MMP assays efficacy (%) Rat Hepatocytes [1, 4]: inactive
- MMP assays IC50 (µM) HepG2 [2, 5]: inactive
- MMP assays efficacy (%) HepG2 [2, 5]: inactive
- MMP assays IC50 (µM) qHTS-HepG2 [3]: inactive
- MMP assays efficacy (%) qHTS-HepG2 [3]: inactive

Compound: CC(C)[C@@H](C)/C=C/[C@@H](C)[C@H]1CC[C@H]2/C(=C/C=C3\C[C@@H](O)CC[C@@H]3C)CCC[C@]12C [Dihydrotachysterol]
- MMP assays IC50 (µM) Rat Hepatocytes [1, 4]: inactive
- MMP assays efficacy (%) Rat Hepatocytes [1, 4]: inactive
- MMP assays IC50 (µM) HepG2 [2, 5]: inactive
- MMP assays efficacy (%) HepG2 [2, 5]: inactive
- MMP assays efficacy (%) qHTS-HepG2 [3]: -78±16%
- IC50 [3, 6]: 32.7 ± 1.32 µM

Compound: CCCCCCCC/C=C\CCCCCCCC(N)=O [(9Z)-Octadec-9-enamide]
- MMP assays IC50 (µM) Rat Hepatocytes [1, 4]: inactive
- MMP assays efficacy (%) Rat Hepatocytes [1, 4]: inactive
- MMP assays IC50 (µM) HepG2 [2, 5]: inactive
- MMP assays efficacy (%) HepG2 [2, 5]: inactive
- MMP assays efficacy (%) qHTS-HepG2 [3]: -67±17%
- IC50 [3, 6]: 41.6 ± 7.16 µM

Compound: C[C@@H]1C[C@H]2[C@@H]3CCC4=CC(=O)C=C[C@]4(C)[C@@]3(F)[C@@H](O)C[C@]2(C)[C@@]1(O)C(=O)COC(=O)c1cccc(S(=O)(=O)[O-])c1.[Na+] [Dexamethazone metasulfobenzoate sodium]
- MMP assays IC50 (µM) Rat Hepatocytes [1, 4]: inactive
- MMP assays efficacy (%) Rat Hepatocytes [1, 4]: inactive
- MMP assays IC50 (µM) HepG2 [2, 5]: inactive
- MMP assays efficacy (%) HepG2 [2, 5]: inactive
- MMP assays IC50 (µM) qHTS-HepG2 [3]: inactive
- MMP assays efficacy (%) qHTS-HepG2 [3]: inactive

Compound: CCCCCCCCCCn1cc[n+](C)c1.F[B-](F)(F)F [1-Decyl-3-methylimidazolium tetrafluoroborate]
- MMP assays efficacy (%) Rat Hepatocytes [1, 4]: -100±10%
- IC50 [1, 4]: 16.8 ± 7.73 µM
- MMP assays efficacy (%) HepG2 [2, 5]: -104%
- IC50 [2, 5]: 7.08 µM
- MMP assays efficacy (%) qHTS-HepG2 [3]: -68±12%
- IC50 [3, 6]: 3.87 µM

Compound: Cc1cc2c(cc1C(F)(F)F)N(C(=O)Nc1ccc(Oc3cccnc3C)nc1)CC2.Cl
- MMP assays efficacy (%) Rat Hepatocytes [1, 4]: -98±10%
- IC50 [1, 4]: 6.15 ± 3.62 µM
- MMP assays efficacy (%) HepG2 [2, 5]: -104%
- IC50 [2, 5]: 2 µM
- MMP assays efficacy (%) qHTS-HepG2 [3]: -159±11%
- IC50 [3, 6]: 14.4 ± 5.99 µM

Compound: CC(=O)OCC(=O)[C@@]1(OC(C)=O)[C@@H](C)C[C@H]2[C@@H]3C[C@H](F)C4=CC(=O)C=C[C@]4(C)[C@@]3(F)[C@@H](O)C[C@@]21C [Diflorasone diacetate]
- MMP assays IC50 (µM) Rat Hepatocytes [1, 4]: inactive
- MMP assays efficacy (%) Rat Hepatocytes [1, 4]: inactive
- MMP assays IC50 (µM) HepG2 [2, 5]: inactive
- MMP assays efficacy (%) HepG2 [2, 5]: inactive
- MMP assays efficacy (%) qHTS-HepG2 [3]: -50±7%
- IC50 [3, 6]: 28.7 ± 1.87 µM
